According to patent US20100125059A1, “1-BIARYLAZETIDINONE DERIVATIVE” (Teijin Pharma Limited, priority 2007, published 2010):
Where two headings read alike, the source gives them in different places.

How the values were obtained:
[1] = test system: Caco-2 cells; assay: Cholesterol absorption inhibition assay (in vitro), [14C] cholesterol mixed micelles; type: cell-based; settings: Homo sapiens, 24 hours, read-out: cholesterol absorption inhibitory activity; for inhibition at 10 µM: concentration of 10 μM; for inhibition at 12.5 µM: concentration of 12.5 μM
Protocol: This assay measures cholesterol absorption inhibitory activity by adding mixed micelles containing [^14C] cholesterol to cells and measuring cholesterol taken in the cells as oleic acid cholesteryl ester. The assay is conducted after Caco-2 cells are seeded on multi-well plates and cultured (culture medium: DMEM containing 10% fetal bovine serum, 1% non-essential amino acids, 1% penicillin, and 1% streptomycin) for 2 weeks. To each well, the micelle solution (in an amount required to provide the following final concentrations: 600 μM of sodium oleate, 50 μM of phosphatidyl choline, 5 mM of sodium taurocholate, 2.5 μM of cholesterol, and 2.5 μM of [^14C] cholesterol) and a test compound solution (in an amount required to provide the final concentration of 0.5 to 25 μM) or a solvent as a control are added, and incubation is started at 37° C. 24 hours later, the culture medium is removed, and the lipid component is extracted with hexane/2-propanol (3:2, v/v) and applied onto thin-layer silica gel plates. After drying, each plate is eluted with a mixture of hexane, diethyl ether, and acetic acid in a ratio of 83:16:1. The plates are photoexposed on imaging plates and analyzed using BAS-2500 (FUJIFILM). The amounts of light exposure of the areas corresponding to the cholesteryl ester are calculated. Background is measured using a blank space of the plate. Inhibition rates are calculated using values obtained by subtracting the background values from both values of the control and the test sample, respectively, in accordance with the following equation. A test value is calculated as a percentage (%) with respect to the control.
In the Equation 1, A is the control group, BG is a background, and B is the test compound.
The following results were obtained from the measurement by this method on cholesterol absorption inhibitory activity of the compounds of the present invention. The following results were obtained by the evaluation using concentrations of 10 μM and/or 12.5 μM.

[2] = test system: hamsters fed a high cholesterol diet; assay: Measurement of lipid lowering effect in hamsters fed a high cholesterol diet; type: in vivo, Male Golden Syrian hamsters; settings: for inhibition in vivo at 0.01 mg/kg / inhibition in vivo at 0.1 mg/kg: Mesocricetus auratus, po, 168 h, gavage once daily, 7 days; for a serum TC lowering effect at a dose of 0.1 mg/kg: Table 22, suppression rate of an increase in serum TC concentration
In short: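 Male Golden Syrian hamsters (6/group) on 0.5% cholesterol diet, dosed by gavage once daily in corn oil at 0.01 to 10 mg/kg; serum and liver sampled 4 h after last dose. TC, TG and LDL-C measured enzymatically; effects expressed as % suppression versus control and normal-diet groups.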

[3] = read-out: serum TC lowering effect (suppression rate of an increase in serum TC concentration)
[4] = read-out: serum TG lowering effect (serum TG lowering rate)
[5] = read-out: serum LDL-C lowering effect (suppression rate of an increase in serum LDL-C concentration)
[6] = read-out: liver TC lowering effect (suppression rate of an increase in liver TC concentration)

How did the inhibition at 10 µM [1] turn out when `O=C1[C@H](SC[C@H](O)c2ccc3occc3c2)[C@@H](c2ccc(O)cc2)N1c1ccc(-c2cccnc2)cc1` [Example 31, (3R,4R)-3-((2R)-2-benzo[b]furan-5-yl-2-hydroxyethylthio)-4-(4-hydroxyphenyl)-1-[4-(pyridin-3-yl)phenyl]azetidin-2-one] was run?
The inhibition at 10 µM was ≥ 50%.

What about the inhibition at 12.5 µM [1] of the same compound?
The inhibition at 12.5 µM was ≥ 60%.

And the inhibition in vivo at 0.01 mg/kg [2, 3]?
Its inhibition in vivo at 0.01 mg/kg is ≥ 30%.

And the inhibition in vivo at 0.1 mg/kg [2, 4]?
The inhibition in vivo at 0.1 mg/kg was ≥ 20%.

Which results are given for `O=C1[C@H](SC[C@H](O)c2ccc(Cl)cc2)[C@@H](c2ccc(O)cc2)N1c1ccc(-c2cccnc2)cc1` [Example 32, (3R,4R)-3-[(2R)-2-(4-chlorophenyl)-2-hydroxyethylthio]-4-(4-hydroxyphenyl)-1-[4-(pyridin-3-yl)phenyl]azetidin-2-one]?
inhibition at 10 µM [1]: ≥ 50%; inhibition at 12.5 µM [1]: ≥ 60%; inhibition in vivo at 0.01 mg/kg [2, 5]: ≥ 30%; inhibition in vivo at 0.1 mg/kg [2, 4]: ≥ 20%

Which results are given for `O=C1[C@H](SC[C@H](O)c2ccc(F)cc2)[C@@H](c2ccc(O)cc2)N1c1ccc(-c2ncc(F)cc2F)cc1` [Example 34, (3R,4R)-3-[(2R)-2-(4-fluorophenyl)-2-hydroxyethylthio]-1-[4-(3,5-difluoropyridin-2-yl)phenyl]-4-(4-hydroxyphenyl)azetidin-2-one]?
inhibition at 10 µM [1]: ≥ 50%; inhibition in vivo at 0.1 mg/kg [2, 4]: ≥ 20%

What does the source list for `Cc1cc(O)ccc1[C@@H]1[C@@H](SC[C@H](O)c2ccc(F)cc2)C(=O)N1c1ccc(-c2cccnc2)cc1` [Example 38, (3R,4R)-3-[(2R)-2-(4-fluorophenyl)-2-hydroxyethylthio]-4-(4-hydroxy-2-methylphenyl)-1-[4-(pyridin-3-yl)phenyl]azetidin-2-one]?
inhibition at 10 µM [1]: ≥ 50%; inhibition in vivo at 0.01 mg/kg [2, 5]: ≥ 30%; inhibition in vivo at 0.1 mg/kg [2, 5]: ≥ 50%; inhibition in vivo at 0.1 mg/kg [2, 3]: ≥ 50%

Which results are given for `Cc1ccc([C@@H](O)CS[C@H]2C(=O)N(c3ccc(-c4cccnc4)cc3)[C@@H]2c2ccc(O)cc2)cc1` [Example 45, (3R,4R)-3-[(2R)-2-hydroxy-2-(4-methylphenyl)ethylthio]-4-(4-hydroxyphenyl)-1-[4-(pyridin-3-yl)phenyl]azetidin-2-one]?
inhibition at 10 µM [1]: ≥ 50%; inhibition at 12.5 µM [1]: ≥ 60%; inhibition in vivo at 0.1 mg/kg [2, 5]: ≥ 50%; inhibition in vivo at 0.1 mg/kg [2, 3]: ≥ 50%

What does the source list for `CC(=O)c1cncc(-c2ccc(N3C(=O)[C@H](SC[C@H](O)c4ccc(F)cc4)[C@H]3c3ccc(O)cc3)cc2)c1` [Example 48, (3R,4R)-3-[(2R)-2-(4-fluorophenyl)-2-hydroxyethylthio]-1-[4-(5-acetylpyridin-3-yl)phenyl]-4-(4-hydroxyphenyl)azetidin-2-one]?
inhibition at 10 µM [1]: ≥ 50%; inhibition at 12.5 µM [1]: ≥ 60%; inhibition in vivo at 0.1 mg/kg [2, 4]: ≥ 20%

`COc1cncc(-c2ccc(N3C(=O)[C@H](SC[C@H](O)c4ccc(F)cc4)[C@H]3c3ccc(O)cc3)cc2)c1` [Example 50, (3R,4R)-3-[(2R)-2-(4-fluorophenyl)-2-hydroxyethylthio]-4-(4-hydroxyphenyl)-1-[4-(5-methoxypyridin-3-yl)phenyl]azetidin-2-one] was tested. Which inhibition at 10 µM [1] did it give?
The inhibition at 10 µM was ≥ 50%.

What about the inhibition in vivo at 0.1 mg/kg [2, 3] of the same compound?
Its inhibition in vivo at 0.1 mg/kg is ≥ 50%.

What about the inhibition in vivo at 0.1 mg/kg [2, 4] of the same compound?
Its inhibition in vivo at 0.1 mg/kg is ≥ 20%.

`O=C1[C@H](SC[C@H](O)c2ccc(F)cc2)[C@@H](c2ccc(O)cc2)N1c1ccc(-c2cncc(C(F)(F)F)c2)cc1` [Example 51, (3R,4R)-3-[(2R)-2-(4-fluorophenyl)-2-hydroxyethylthio]-4-(4-hydroxyphenyl)-1-[4-(5-trifluoromethylpyridin-3-yl)phenyl]azetidin-2-one] was tested. Which inhibition at 10 µM [1] did it give?
Its inhibition at 10 µM is ≥ 50%.

What about the inhibition in vivo at 0.01 mg/kg [2, 3] of the same compound?
Its inhibition in vivo at 0.01 mg/kg is ≥ 30%.

What about the inhibition in vivo at 0.1 mg/kg [2, 4] of the same compound?
Its inhibition in vivo at 0.1 mg/kg is ≥ 20%.

What about the “a serum TC lowering effect at a dose of 0.1 mg/kg” value [2] of the same compound?
Its value is 104%.

`COc1cc(N2C(=O)[C@H](SC[C@H](O)c3ccc(F)cc3)[C@H]2c2ccc(O)cc2)ccc1-c1cccnc1` [Example 52, (3R,4R)-3-[(2R)-2-(4-fluorophenyl)-2-hydroxyethylthio]-4-(4-hydroxyphenyl)-1-[3-methoxy-4-(pyridin-3-yl)phenyl]azetidin-2-one] was tested. Which inhibition at 10 µM [1] did it give?
Its inhibition at 10 µM is ≥ 50%.

And the inhibition in vivo at 0.1 mg/kg [2, 4]?
Its inhibition in vivo at 0.1 mg/kg is ≥ 20%.

How did the inhibition at 10 µM [1] turn out when `O=C1[C@H](SC[C@H](O)c2ccc(F)cc2)[C@@H](c2ccc(O)cc2)N1c1ccc(-c2cncc(F)c2)cc1` [Example 55, (3R,4R)-3-[(2R)-2-(4-fluorophenyl)-2-hydroxyethylthio]-1-[4-(5-fluoropyridin-3-yl)phenyl]-4-(4-hydroxyphenyl)azetidin-2-one] was run?
Its inhibition at 10 µM is ≥ 50%.

And the inhibition in vivo at 0.01 mg/kg [2, 6]?
The inhibition in vivo at 0.01 mg/kg was ≥ 30%.

And the inhibition in vivo at 0.01 mg/kg [2, 5]?
The inhibition in vivo at 0.01 mg/kg was ≥ 30%.

And the inhibition in vivo at 0.01 mg/kg [2, 3]?
Its inhibition in vivo at 0.01 mg/kg is ≥ 30%.

What about the inhibition in vivo at 0.1 mg/kg [2, 4] of the same compound?
The inhibition in vivo at 0.1 mg/kg was ≥ 20%.

And the “a serum TC lowering effect at a dose of 0.1 mg/kg” value [2]?
Its value is 130%.

What does the source list for `O=C1[C@H](SC[C@H](O)c2ccc(F)cc2)[C@@H](c2ccc(O)cc2)N1c1ccc(-c2cncc(Cl)c2)cc1` [Example 56, (3R,4R)-3-[(2R)-2-(4-fluorophenyl)-2-hydroxyethylthio]-1-[4-(5-chloropyridin-3-yl)phenyl]-4-(4-hydroxyphenyl)azetidin-2-one]?
inhibition at 10 µM [1]: ≥ 50%; inhibition in vivo at 0.01 mg/kg [2, 6]: ≥ 30%; inhibition in vivo at 0.01 mg/kg [2, 5]: ≥ 30%; inhibition in vivo at 0.01 mg/kg [2, 3]: ≥ 30%; inhibition in vivo at 0.1 mg/kg [2, 6]: ≥ 50%

`N#Cc1cncc(-c2ccc(N3C(=O)[C@H](SC[C@H](O)c4ccc(Cl)cc4)[C@H]3c3ccc(O)cc3)cc2)c1` [Example 58, 5-(4-{(3R,4R)-3-[(2R)-2-(4-chlorophenyl)-2-hydroxyethylthio]-4-(4-hydroxyphenyl)-2-oxoazetidinyl}phenyl)pyridine-3-carbonitrile] was tested. Which inhibition at 10 µM [1] did it give?
Its inhibition at 10 µM is ≥ 50%.

And the inhibition at 12.5 µM [1]?
Its inhibition at 12.5 µM is ≥ 60%.

What about the inhibition in vivo at 0.01 mg/kg [2, 6] of the same compound?
The inhibition in vivo at 0.01 mg/kg was ≥ 30%.

And the inhibition in vivo at 0.01 mg/kg [2, 5]?
The inhibition in vivo at 0.01 mg/kg was ≥ 30%.

What about the inhibition in vivo at 0.1 mg/kg [2, 4] of the same compound?
Its inhibition in vivo at 0.1 mg/kg is ≥ 20%.

For `O=C1[C@H](SC[C@H](O)c2ccc(F)cc2)[C@@H](c2ccc(O)cc2Cl)N1c1ccc(-c2cccnc2)cc1` [Example 59, (3R,4R)-3-[(2R)-2-(4-fluorophenyl)-2-hydroxyethylthio]-4-(2-chloro-4-hydroxyphenyl)-1-[4-(pyridin-3-yl)phenyl]azetidin-2-one], which inhibition at 12.5 µM [1] is on record?
Its inhibition at 12.5 µM is ≥ 60%.

And the inhibition in vivo at 0.01 mg/kg [2, 3]?
Its inhibition in vivo at 0.01 mg/kg is ≥ 30%.

And the inhibition in vivo at 0.1 mg/kg [2, 6]?
Its inhibition in vivo at 0.1 mg/kg is ≥ 50%.

And the inhibition in vivo at 0.1 mg/kg [2, 4]?
The inhibition in vivo at 0.1 mg/kg was ≥ 20%.

`COc1ccncc1-c1ccc(N2C(=O)[C@H](SC[C@H](O)c3ccc(Cl)cc3)[C@H]2c2ccc(O)cc2)cc1` [Example 61, (3R,4R)-3-[(2R)-2-(4-chlorophenyl)-2-hydroxyethylthio]-4-(4-hydroxyphenyl)-1-[4-(4-methoxypyridin-3-yl)phenyl]azetidin-2-one] was tested. Which inhibition at 12.5 µM [1] did it give?
Its inhibition at 12.5 µM is ≥ 60%.

What about the inhibition in vivo at 0.1 mg/kg [2, 5] of the same compound?
Its inhibition in vivo at 0.1 mg/kg is ≥ 50%.

`O=C1[C@H](SC[C@H](O)c2ccc(Cl)c(F)c2)[C@@H](c2ccc(O)cc2)N1c1ccc(-c2cccnc2)cc1` [Example 81, (3R,4R)-3-[(2R)-2-(4-chloro-3-fluorophenyl)-2-hydroxyethylthio]-4-(4-hydroxyphenyl)-1-[4-(pyridin-3-yl)phenyl]azetidin-2-one] was tested. Which inhibition at 12.5 µM [1] did it give?
The inhibition at 12.5 µM was ≥ 60%.

And the inhibition in vivo at 0.1 mg/kg [2, 5]?
The inhibition in vivo at 0.1 mg/kg was ≥ 50%.

What about the inhibition in vivo at 0.1 mg/kg [2, 3] of the same compound?
The inhibition in vivo at 0.1 mg/kg was ≥ 50%.

`O=C1[C@H](SC[C@H](O)c2ccc3sccc3c2)[C@@H](c2ccc(O)cc2)N1c1ccc(-c2cccnc2)cc1` [Example 83, (3R,4R)-3-((2R)-2-benzo[b]thiophen-5-yl-2-hydroxyethylthio)-4-(4-hydroxyphenyl)-1-[4-(pyridin-3-yl)phenyl]azetidin-2-one] was tested. Which inhibition at 12.5 µM [1] did it give?
Its inhibition at 12.5 µM is ≥ 60%.

And the inhibition in vivo at 0.1 mg/kg [2, 5]?
Its inhibition in vivo at 0.1 mg/kg is ≥ 50%.

And the inhibition in vivo at 0.1 mg/kg [2, 3]?
The inhibition in vivo at 0.1 mg/kg was ≥ 50%.

Which results are given for `Cc1cncc(-c2ccc(N3C(=O)[C@H](SC[C@H](O)c4ccc(Cl)cc4)[C@H]3c3ccc(O)cc3)cc2)c1` [Example 85, (3R,4R)-3-[(2R)-2-(4-chlorophenyl)-2-hydroxyethylthio]-4-(4-hydroxyphenyl)-1-[4-(5-methylpyridin-3-yl)phenyl]azetidin-2-one]?
inhibition at 12.5 µM [1]: ≥ 60%; inhibition in vivo at 0.01 mg/kg [2, 5]: ≥ 30%; inhibition in vivo at 0.01 mg/kg [2, 3]: ≥ 30%
